Source: US11214594B2, “Antimicrobial peptide having synergistic antibacterial effect with antibiotics on multidrug resistant bacteria, and use thereof” (priority 2016, dated 2022)
Where a SMILES comes first, the peptide text is derived from it.

Legend:
P. aeruginosa = test: microbe, parasite or virus in culture; format: cell-based, Pseudomonas aeruginosa
Outline: (§1)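 Peptides were serially diluted twofold in Mueller-Hinton medium and combined 1:1 with bacterial suspensions prepared at 2×10^6 CFU. Readout was the minimal inhibitory concentration, i.e. the lowest concentration with no growth.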

S. typhimurium = test: microbe, parasite or virus in culture; format: cell-based, Salmonella typhimurium
Outline: as §1

MRSA 3114 = format: cell-based, Staphylococcus aureus; conditions: 3114
Outline: as §1

MRSA 3126 = format: cell-based, Staphylococcus aureus; conditions: 3126
Outline: as §1

MDREC 1238 = format: cell-based, Escherichia coli
Outline: as §1

E. coli [1] = test: microbe, parasite or virus in culture; format: cell-based, Escherichia coli
Outline: as §1

MDREC 1229 [2] = test: microbe, parasite or virus in culture; format: cell-based, Escherichia coli
Outline: as §1

S. aureus = test: microbe, parasite or virus in culture; format: cell-based, Staphylococcus aureus
Outline: as §1

MDRAB 12036 = format: cell-based, Acinetobacter baumannii
Outline: as §1

S. epidermidis = test: microbe, parasite or virus in culture; format: cell-based, Staphylococcus epidermidis
Outline: as §1

E. coli [3] = test: MIC of antibiotic during combined treatment with antimicrobial peptide; format: cell-based, Escherichia coli; conditions: for Antibiotic MIC, Erythromycin / Antibiotic MIC, Linezolid / Antibiotic MIC, Vancomycin: E. coli
Outline: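 Using MH broth, we determined combination MICs by titrating the antibiotic into wells and then repeating under the reverse dilution scheme.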

A. baumannii = test: MIC of antimicrobial peptide during combined treatment with antibiotic; format: cell-based, Acinetobacter baumannii
Outline: (§2)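 Broth microdilution in MH medium; strains were diluted to 2×10^6 CFU per ml before plating. Peptide was serially diluted stepwise at 2:1 starting from its MIC, and MH-diluted antibiotic was then added to determine MIC. The reversed arrangement was also tested.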

MDRAB 12035 = test: as above; format: cell-based, Acinetobacter baumannii
Outline: as §2

MDREC 1229 [4] = test: MIC of antibiotic during combined treatment with antimicrobial peptide; format: cell-based, Escherichia coli
Outline: as §2

MDRST 8007 = test: Minimal inhibitory concentration (MIC), single agent; format: cell-based, Salmonella typhimurium; conditions: agent alone
Outline: as §1

MDRST 8009 = format: cell-based, Salmonella typhimurium; conditions: agent alone
Outline: as §1

[5] = erythromycin 4 μg/ml (Conc./MIC 1/8)
[6] = erythromycin 8 μg/ml (Conc./MIC 1/4)
[7] = erythromycin 16 μg/ml (Conc./MIC 1/2)
[8] = erythromycin 32 μg/ml (Conc./MIC 1)
[9] = vancomycin 512 μg/ml (Conc./MIC 1/2)
[10] = vancomycin 1024 μg/ml (Conc./MIC 1)
[11] = peptide treatment concentration 1 μg/ml
[12] = peptide treatment concentration 2 μg/ml
[13] = peptide treatment concentration 4 μg/ml
[14] = peptide treatment concentration 6 μg/ml
[15] = peptide treatment concentration 8 μg/ml
[16] = peptide treatment concentration 16 μg/ml
[17] = peptide treatment concentration 32 μg/ml
[18] = peptide treatment concentration 64 μg/ml

CC[C@H](C)[C@H](NC(=O)[C@H](CCCCN)NC(=O)[C@H](Cc1c[nH]c2ccccc12)NC(=O)[C@@H](N)CCCNC(=N)N)C(=O)N[C@@H](Cc1ccccc1)C(=O)N[C@@H](CCCCN)C(=O)N[C@@H](CCCCN)C(=O)N[C@H](C(=O)N1CCC[C@H]1C(=O)N[C@@H](CCCCN)C(=O)N[C@@H](CC(C)C)C(=O)N[C@@H](CC(C)C)C(=O)N[C@@H](Cc1c[nH]cn1)C(=O)N[C@@H](CO)C(=O)N[C@@H](C)C(=O)N[C@@H](CCCCN)C(=O)N[C@@H](CCCCN)C(=O)N[C@@H](Cc1c[nH]c2ccccc12)C(N)=O)[C@@H](C)CC [PapMA-9, RWK IFK KIP KLL HSA KKW-NH2] (H-RWKIFKKIPKLLHSAKKW-NH2; N-terminus assumed)
4 µg/mL: Antibiotic MIC, Linezolid (E. coli [3]; linezolid combined with peptide at 8 μg/ml) | Peptide MIC during treatment with antibiotic (A. baumannii; [5]) | Peptide MIC during treatment with antibiotic (A. baumannii; linezolid 32 μg/ml (Conc./MIC 1/8)) | Peptide MIC during treatment with antibiotic (A. baumannii; linezolid 64 μg/ml (Conc./MIC 1/4)) | Peptide MIC during treatment with erythromycin (MDRAB 12035; [5]) | Peptide MIC during treatment with erythromycin (MDRAB 12035; [6]) | Antibiotic MIC, Linezolid (MDREC 1229 [4]; [16]) | Antibiotic MIC, Vancomycin (MDREC 1229 [4]; [16])
>128 µg/mL: Minimal inhibitory concentration MIC (MRSA 3114) | Minimal inhibitory concentration MIC (MRSA 3126) | Minimal inhibitory concentration MIC (S. aureus) | Minimal inhibitory concentration MIC (S. epidermidis) | Antibiotic MIC, Linezolid (E. coli [3]; linezolid combined with peptide at 1 μg/ml) | Antibiotic MIC, Linezolid (E. coli [3]; linezolid combined with peptide at 2 μg/ml) | Antibiotic MIC, Vancomycin (E. coli [3]; vancomycin combined with peptide at 1 μg/ml) | Antibiotic MIC, Vancomycin (E. coli [3]; vancomycin combined with peptide at 2 μg/ml) | Antibiotic MIC, Vancomycin (MDREC 1229 [4]; [11]) | Antibiotic MIC, Vancomycin (MDREC 1229 [4]; [12])
64 µg/mL: Minimal inhibitory concentration MIC (MDREC 1238) | Minimal inhibitory concentration MIC (MDREC 1229 [2]) | Minimal inhibitory concentration MIC (MDRAB 12036) | Antibiotic MIC, Erythromycin (E. coli [3]; erythromycin combined with peptide at 2 μg/ml) | Antibiotic MIC, Vancomycin (E. coli [3]; vancomycin combined with peptide at 4 μg/ml) | Antibiotic MIC, Erythromycin (MDREC 1229 [4]; [11]) | Antibiotic MIC, Erythromycin (MDREC 1229 [4]; [12]) | Antibiotic MIC, Linezolid (MDREC 1229 [4]; [12]) | Minimal inhibitory concentration MIC (MDRST 8007) | Minimal inhibitory concentration MIC (MDRST 8009)
16 µg/mL: Antibiotic MIC, Linezolid (E. coli [3]; linezolid combined with peptide at 4 μg/ml) | Antibiotic MIC, Vancomycin (E. coli [3]; vancomycin combined with peptide at 6 μg/ml) | Antibiotic MIC, Linezolid (MDREC 1229 [4]; [14])
2 µg/mL: Antibiotic MIC, Erythromycin (E. coli [3]; erythromycin combined with peptide at 6 μg/ml) | Antibiotic MIC, Linezolid (E. coli [3]; linezolid combined with peptide at 16 μg/ml) | Antibiotic MIC, Vancomycin (E. coli [3]; vancomycin combined with peptide at 16 μg/ml) | Peptide MIC during treatment with antibiotic (A. baumannii; [6]) | Peptide MIC during treatment with antibiotic (A. baumannii; [7]) | Peptide MIC during treatment with antibiotic (A. baumannii; linezolid […] (Conc./MIC 1/2)) | Peptide MIC during treatment with antibiotic (A. baumannii; vancomycin […] (Conc./MIC 1/8)) | Peptide MIC during treatment with linezolid (MDRAB 12035; linezolid 64 μg/ml (Conc./MIC 1/8)) | Peptide MIC during treatment with linezolid (MDRAB 12035; linezolid […] (Conc./MIC 1/4)) | Peptide MIC during treatment with vancomycin (MDRAB 12035; vancomycin […] (Conc./MIC 1/8)) | Antibiotic MIC, Erythromycin (MDREC 1229 [4]; [14]) | Antibiotic MIC, Linezolid (MDREC 1229 [4]; [17]) | Antibiotic MIC, Vancomycin (MDREC 1229 [4]; [17])
128 µg/mL: Antibiotic MIC, Erythromycin (E. coli [3]; erythromycin combined with peptide at 1 μg/ml) | Antibiotic MIC, Linezolid (MDREC 1229 [4]; [11]) | Antibiotic MIC, Vancomycin (MDREC 1229 [4]; [13])
0.5 µg/mL: Antibiotic MIC, Erythromycin (E. coli [3]; erythromycin combined with peptide at 8 μg/ml) | Peptide MIC during treatment with antibiotic (A. baumannii; vancomycin […] (Conc./MIC 1/4)) | Antibiotic MIC, Erythromycin (MDREC 1229 [4]; [16])
1 µg/mL: Peptide MIC during treatment with erythromycin (MDRAB 12035; [7]) | Peptide MIC during treatment with linezolid (MDRAB 12035; linezolid […] (Conc./MIC 1/2)) | Peptide MIC during treatment with vancomycin (MDRAB 12035; [9]) | Peptide MIC during treatment with vancomycin (MDRAB 12035; vancomycin […] (Conc./MIC 1/4)) | Antibiotic MIC, Erythromycin (MDREC 1229 [4]; [15])
32 µg/mL: Minimal inhibitory concentration MIC (S. typhimurium) | Minimal inhibitory concentration MIC (E. coli [1]; 16 h) | Antibiotic MIC, Linezolid (MDREC 1229 [4]; [13]) | Antibiotic MIC, Vancomycin (MDREC 1229 [4]; [14])
higher level than the PapMA-1 peptide: Synergistic effect of antibacterial activity with existing antibiotics compared with PapMA-1 (E. coli [3]; E. coli and MDREC1229)
0.25 µg/mL: Peptide MIC during treatment with antibiotic (A. baumannii; [9]) | Peptide MIC during treatment with vancomycin (MDRAB 12035; [10])
0.125 µg/mL: Antibiotic MIC, Erythromycin (E. coli [3]; erythromycin combined with peptide at 16 μg/ml) | Antibiotic MIC, Erythromycin (MDREC 1229 [4]; [17])
8 µg/mL: Minimal inhibitory concentration MIC (P. aeruginosa) | Antibiotic MIC, Erythromycin (E. coli [3]; erythromycin combined with peptide at 4 μg/ml) | Antibiotic MIC, Linezolid (E. coli [3]; linezolid combined with peptide at 6 μg/ml) | Antibiotic MIC, Vancomycin (E. coli [3]; vancomycin combined with peptide at 8 μg/ml) | Antibiotic MIC, Erythromycin (MDREC 1229 [4]; [13]) | Antibiotic MIC, Linezolid (MDREC 1229 [4]; [15]) | Antibiotic MIC, Vancomycin (MDREC 1229 [4]; [15])
at least twice as high: Antibacterial activity relative to PapMA-1 (E. coli [1]; E. coli)
0 µg/mL: Antibiotic MIC, Erythromycin (E. coli [3]; erythromycin combined with peptide at 32 μg/ml) | Antibiotic MIC, Erythromycin (E. coli [3]; erythromycin combined with peptide at 64 μg/ml) | Antibiotic MIC, Linezolid (E. coli [3]; linezolid combined with peptide at 32 μg/ml) | Antibiotic MIC, Linezolid (E. coli [3]; linezolid combined with peptide at 64 μg/ml) | Antibiotic MIC, Vancomycin (E. coli [3]; vancomycin combined with peptide at 32 μg/ml) | Antibiotic MIC, Vancomycin (E. coli [3]; vancomycin combined with peptide at 64 μg/ml) | Peptide MIC during treatment with antibiotic (A. baumannii; [8]) | Peptide MIC during treatment with antibiotic (A. baumannii; linezolid […] (Conc./MIC 1)) | Peptide MIC during treatment with antibiotic (A. baumannii; [10]) | Peptide MIC during treatment with erythromycin (MDRAB 12035; [8]) | Peptide MIC during treatment with linezolid (MDRAB 12035; linezolid 512 μg/ml (Conc./MIC 1)) | Antibiotic MIC, Erythromycin (MDREC 1229 [4]; [18]) | Antibiotic MIC, Linezolid (MDREC 1229 [4]; [18]) | Antibiotic MIC, Vancomycin (MDREC 1229 [4]; [18])
